The record followed here is patent US12018059B2, “Human amylin analog polypeptides and methods of use” (Intarcia Therapeutics, Inc., priority 2018, dated 2024).

A short description of data set [1]: Pharmacokinetics, 3-hour intravenous infusion of linear (non-acylated) polypeptides. Further details: species or system Sprague-Dawley rats. Conditions: rat, in vivo, 0.1 mg/kg. The protocol: Peptides were dissolved in sterile saline and administered as a 3-hour intravenous infusion to non-fasted male Sprague-Dawley rats (n=3 per group) via femoral vein cannula at a final dose of 0.100 mg/kg. […] Blood samples (approximately 250 μL) were collected for pharmacokinetic analysis via a jugular vein cannula at 0.25, 0.5, 1, 2, 3, 3.17, 3.33, 3.5, 4, 4.5, 5, and 6 hr post-start of infusion (long method) or at 1, 1.5, 2, 2.5, and 3 hr post-start of infusion (steady-state screening method). All samples were collected into microtainer tubes containing K2EDTA as anticoagulant and 25 μL of a protease inhibitor cocktail. Plasma was prepared by centrifugation and stored at −80° C. until analysis. The results of this analysis are shown in Table 9 and few exemplars in FIGS. 3a-3b.
A 60 μL aliquot of each plasma sample was placed into to a 96-well plate. To each well was added 6 μL of 0.5% Tween-20. Plates were then vortexed mixed for 10 minutes at 1200 rpm before 180 μL of 0.1% TFA in 2:1 ethanol:acetonitrile containing an appropriate internal standard was added to each well. Plates were vortex mixed for 5 min at 1300 rpm, and then centrifuged for 10 min at 2844×g. Supernatants (180 μL) were placed into a clean 96-well plate and evaporated under a nitrogen stream at 45° C. Residues were reconstituted in 80 μL of 20% acetonitrile (aq) containing 0.1% formic acid.
A […] aliquot of each plasma sample was diluted with […] of 10 mM ammonium acetate (pH 6.8) containing an appropriate internal standard and loaded onto an Oasis WCX microElution plate (Waters Corporation, Milford, MA) that had been pre-conditioned with […] of methanol and […] of deionized water. Samples were washed with […] of 5% ammonium hydroxide (aq) followed by […] of 20% acetonitrile in water. The analyte was eluted with […] of 5% formic acid in 75:25 acetonitrile:water. The eluent was dried under a nitrogen stream. Residues were reconstituted in 80 μL of 20% acetonitrile (aq) containing 0.1% formic acid.
All calibration standards were prepared in control rat plasma containing K2EDTA and protease inhibitor cocktail.
Samples and standards were analyzed by TurbolonSpray™ UPLC-MS/MS using a system consisting of a CTC HTS PAL auto-injector (Leap, Carrboro, NC), an Agilent Infinity 1290 system with column oven (Palo Alto, CA), a Valco switching valve (Houston, TX), and either an AB Sciex API 5600 TripleTOF™ or Sciex API 4000QTrap mass spectrometer (Framingham, MA). Samples were injected onto a 2.1×50 mm reverse phase C18 analytical column, typically a Waters CORTECS UPLC C18+, 1.6 μm (Waters Corporation, Milford, MA) or similar. […] Initial conditions consisted of 90% A and 10% B. The organic component was increased to 95% B over a period of 3-4 minutes, depending on the peptide. Typical flow rates were 600 μL/min. The column temperature was held constant at 40 or 50° C. Peptides were quantified by monitoring one or more product ions produced from a multiply charged parent ion.

Data set [2] has as its target human amylin 3 receptor (hAMY3R) (Homo sapiens, UniProt O60896+P30988). The experiment in a line: cAMP accumulation functional assay in HEK293-CNG cells expressing hAMY3R. It is filed as cell-based. The protocol: (§1) In the presence of the non-specific cAMP/cGMP phosphodiesterase inhibitor 3-isobutyl-1-methylxanthine (IBMX), accumulating cAMP can be measured in vitro using common detection methods. Thus, it is possible to estimate an in vitro potency (pEC50) for peptides activating each of these receptors using fit dose-response curves for cAMP accumulation.
(§2) Cells were carried in growth media for no more than 10 passages prior to testing.
(§3) Peptides were serially diluted in the same buffer as above for each given assay condition. Two assay control solutions consisting of 50 mcM forskolin (cAMP system maximum) or assay buffer only (cAMP system minimum) were also prepared in the appropriate stimulation buffers. Five microliters of each peptide-concentration, or assay control was added to triplicate wells and incubated for thirty minutes at room temperature. During this incubation step a 4× europium labelled cAMP tracer solution and a 4× Ulight®-anti-cAMP solution (consisting of an anti-cAMP monoclonal antibody labelled with Ulight™ dye) was prepared according to the manufacturer's protocol (PerkinElmer LANCE Ultra cAMP kit). Following this incubation, 5 mcL europium labelled cAMP and 5 mcL Ulight anti-cAMP antibody was added to wells. The plate was covered with an adhesive cover to prevent evaporation and incubated for 60 minutes at room temperature in the dark. Plates were read on an Envision fluorescent plate reader (PerkinElmer).
(§4) Test values were first normalized to the forskolin induced cAMP system maximum and system minimum averaged values in Excel using the formula: (test value−system minavg)/(system maxavg−system minavg)*100. Normalized test values represent a baseline corrected percentage of the system maximum cAMP response induced by forskolin. Normalized data was analyzed from triplicate tests and used to estimate the EC50 for each peptide on each receptor. Data was fit in GraphPad Prism software (v7.04) using a 4-parameter logistic curve model: Y=Bottom+(Top−Bottom)/(1+10^((Log EC50−X))). The Hill slope was constrained to 1.0. EC50 values were converted to pEC50 values using the formula: pEC50=−Log (EC50).
(cAMP levels reflect the balance of adenylyl cyclase and phosphodiesterase activity.)

Data set [3] deals with T1, human calcitonin receptor (hCTR) (Homo sapiens, UniProt P30988).
T1 sequence (P30988 25-474): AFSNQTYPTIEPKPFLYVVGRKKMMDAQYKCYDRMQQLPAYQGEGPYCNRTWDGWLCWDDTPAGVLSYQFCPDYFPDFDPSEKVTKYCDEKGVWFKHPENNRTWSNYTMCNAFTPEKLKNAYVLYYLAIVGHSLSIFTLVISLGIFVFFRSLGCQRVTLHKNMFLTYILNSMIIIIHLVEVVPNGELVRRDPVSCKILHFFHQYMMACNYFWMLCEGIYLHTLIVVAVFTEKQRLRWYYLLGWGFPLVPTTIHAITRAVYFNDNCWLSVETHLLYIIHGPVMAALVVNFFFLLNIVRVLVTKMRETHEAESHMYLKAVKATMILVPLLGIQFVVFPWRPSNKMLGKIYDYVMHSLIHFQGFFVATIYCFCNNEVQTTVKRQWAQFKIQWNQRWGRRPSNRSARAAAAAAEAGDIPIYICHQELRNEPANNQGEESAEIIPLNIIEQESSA
The experiment in a line: cAMP accumulation functional assay in HEK293-CNG cells expressing hCTR. The data set is classed as cell-based. The protocol: as §1, §2, §3, §4

Read-outs that look alike come from different tables or passages of the source. Starred links: 1 amine or outer side, 2 acyl side, 3 side chain; linkers in the order of their positions; H or OH if unused. Positions of bridges follow the written chain, without caps; N, C: chain ends. Residues, ends and D or L forms follow the SMILES beside them. Groups on a side chain read outwards from the residue. *: point of attachment. C18 diacid = O=C(O)CCCCCCCCCCCCCCCCC(=O)*; γGlu = O=C(O)[C@H](CCC(=O)[*:2])N[*:1]; AEEA = NCCOCCOCC(=O)O

human amylin 3 receptor (hAMY3R), sequence (O60896 24-148, one chain of several): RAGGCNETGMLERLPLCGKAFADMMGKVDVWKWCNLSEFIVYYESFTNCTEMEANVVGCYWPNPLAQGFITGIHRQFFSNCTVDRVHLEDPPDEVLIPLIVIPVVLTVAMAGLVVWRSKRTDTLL

`CC[C@H](C)[C@H](NC(=O)[C@@H]1CCCN1C(=O)CNC(=O)[C@H](Cc1ccccc1)NC(=O)[C@H](CC(N)=O)NC(=O)[C@H](CC(N)=O)NC(=O)[C@H](CO)NC(=O)[C@H](CO)NC(=O)[C@H](CCCNC(=N)N)NC(=O)[C@H](Cc1c[nH]cn1)NC(=O)[C@H](CC(C)C)NC(=O)[C@H](Cc1ccc(O)cc1)NC(=O)[C@H](CC(N)=O)NC(=O)[C@H](C)NC(=O)[C@H](CC(C)C)NC(=O)[C@H](CCCNC(=N)N)NC(=O)[C@H](CCC(N)=O)NC(=O)[C@@H](NC(=O)[C@H](C)NC(=O)[C@@H]1CSSC[C@H](NC(=O)[C@@H](N)CO)C(=O)N[C@@H](CC(N)=O)C(=O)N[C@@H]([C@@H](C)O)C(=O)N[C@@H](C)C(=O)N[C@@H](CO)C(=O)N1)[C@@H](C)O)C(=O)N[C@@H](CC(C)C)C(=O)N1CCC[C@H]1C(=O)N1CCC[C@H]1C(=O)N[C@H](C(=O)N[C@@H](CC(N)=O)C(=O)N[C@H](C(=O)NCC(=O)N[C@@H](CO)C(=O)N[C@@H](CC(N)=O)C(=O)N[C@H](C(=O)N[C@@H](Cc1ccc(O)cc1)C(N)=O)[C@@H](C)O)C(C)C)[C@@H](C)O` [Compound A61] (H-SCNTASCATQRLANYLHRSSNNFGPILPPTNVGSNTY-NH2; disulfide 2-7): in data set [1] (linear polypeptides, 3-hour intravenous infusion, 0.100 mg/kg, male Sprague-Dawley rats, read-out: CL), the clearance came to 22.8 mL/min/kg.

In data set [1] (iv), `CC[C@H](C)[C@H](NC(=O)[C@@H]1CCCN1C(=O)CNC(=O)[C@H](Cc1ccccc1)NC(=O)[C@H](CC(N)=O)NC(=O)[C@H](CC(N)=O)NC(=O)[C@H](CO)NC(=O)[C@H](CO)NC(=O)[C@H](CCCCN)NC(=O)[C@H](CCC(N)=O)NC(=O)[C@H](CC(C)C)NC(=O)[C@H](Cc1ccccc1)NC(=O)[C@H](CC(N)=O)NC(=O)[C@H](C)NC(=O)[C@H](CC(C)C)NC(=O)[C@H](CCCNC(=N)N)NC(=O)[C@H](CO)NC(=O)[C@@H](NC(=O)[C@H](C)NC(=O)[C@@H]1CSSC[C@H](NC(=O)[C@@H](N)CO)C(=O)N[C@@H](CC(N)=O)C(=O)N[C@@H]([C@@H](C)O)C(=O)N[C@@H](CO)C(=O)N[C@@H]([C@@H](C)O)C(=O)N1)[C@@H](C)O)C(=O)N[C@@H](CC(C)C)C(=O)N1CCC[C@H]1C(=O)N1CCC[C@H]1C(=O)N[C@H](C(=O)N[C@@H](CCCCN)C(=O)N[C@H](C(=O)NCC(=O)N[C@@H](CO)C(=O)N[C@@H](CCC(=O)O)C(=O)N[C@H](C(=O)N[C@@H](Cc1ccc(O)cc1)C(N)=O)[C@@H](C)O)C(C)C)[C@@H](C)O` [Compound A62] (H-SCNTSTCATSRLANFLQKSSNNFGPILPPTKVGSETY-NH2; disulfide 2-7) gave a clearance of 18.8 mL/min/kg.

Compound `CC[C@H](C)[C@H](NC(=O)[C@@H]1CCCN1C(=O)CNC(=O)[C@H](Cc1ccccc1)NC(=O)[C@H](CC(N)=O)NC(=O)[C@H](CC(N)=O)NC(=O)[C@H](CO)NC(=O)[C@H](CO)NC(=O)[C@H](Cc1c[nH]cn1)NC(=O)[C@@H](NC(=O)[C@H](CC(C)C)NC(=O)[C@H](Cc1ccc(O)cc1)NC(=O)[C@H](CC(N)=O)NC(=O)[C@H](C)NC(=O)[C@H](CC(C)C)NC(=O)[C@H](CCCNC(=N)N)NC(=O)[C@H](CO)NC(=O)[C@@H](NC(=O)[C@H](C)NC(=O)[C@@H]1CSSC[C@H](NC(=O)[C@@H](N)CO)C(=O)N[C@@H](CC(N)=O)C(=O)N[C@@H]([C@@H](C)O)C(=O)N[C@@H](CO)C(=O)N[C@@H]([C@@H](C)O)C(=O)N1)[C@@H](C)O)C(C)C)C(=O)N[C@@H](CC(C)C)C(=O)N1CCC[C@H]1C(=O)N1CCC[C@H]1C(=O)N[C@H](C(=O)N[C@@H](CCCCN)C(=O)N[C@H](C(=O)NCC(=O)N[C@@H](CO)C(=O)N[C@@H](CCC(=O)O)C(=O)N[C@H](C(=O)N[C@@H](Cc1ccc(O)cc1)C(N)=O)[C@@H](C)O)C(C)C)[C@@H](C)O` [Compound A111] (H-SCNTSTCATSRLANYLVHSSNNFGPILPPTKVGSETY-NH2; disulfide 2-7) returned a clearance in data set [1] (iv) of 20 mL/min/kg.

For the compound `CC[C@H](C)[C@H](NC(=O)[C@@H]1CCCN1C(=O)CNC(=O)[C@H](Cc1ccccc1)NC(=O)[C@H](CC(N)=O)NC(=O)[C@H](CC(N)=O)NC(=O)[C@H](CO)NC(=O)[C@H](CO)NC(=O)[C@H](CCCCN)NC(=O)[C@H](Cc1c[nH]cn1)NC(=O)[C@H](CC(C)C)NC(=O)[C@H](CCC(=O)O)NC(=O)[C@H](CC(N)=O)NC(=O)[C@H](C)NC(=O)[C@H](CC(C)C)NC(=O)[C@H](CCCNC(=N)N)NC(=O)[C@H](CCC(N)=O)NC(=O)[C@@H](NC(=O)[C@H](C)NC(=O)[C@@H]1CSSC[C@H](NC(=O)[C@@H](N)CCCCNC(=O)COCCOCCNC(=O)COCCOCCNC(=O)CC[C@H](NC(=O)CCCCCCCCCCCCCCCCC(=O)O)C(=O)O)C(=O)N[C@@H](CC(N)=O)C(=O)N[C@@H]([C@@H](C)O)C(=O)N[C@@H](CO)C(=O)N[C@@H]([C@@H](C)O)C(=O)N1)[C@@H](C)O)C(=O)N[C@@H](CC(C)C)C(=O)N1CCC[C@H]1C(=O)N1CCC[C@H]1C(=O)N[C@H](C(=O)N[C@@H](CCCCN)C(=O)N[C@H](C(=O)NCC(=O)N[C@@H](CO)C(=O)N[C@@H](CCC(=O)O)C(=O)N[C@H](C(=O)N[C@@H](Cc1ccc(O)cc1)C(N)=O)[C@@H](C)O)C(C)C)[C@@H](C)O` [Compound A113] (H-K([AEEA-AEEA-γGlu-C18 diacid])CNTSTCATQRLANELHKSSNNFGPILPPTKVGSETY-NH2; disulfide 2-7), the EC50 was 1000 pM in data set [2] (4% HSA, read-out: pEC50 hAMY3R 4% HSA (converted)); 25.1 pM in data set [2] (pEC50 hAMY3R 0.1% HSA, 0.1% HSA); 5.01 pM in data set [3] (hCTR 0% HSA, 0% HSA, read-out: pEC50 hCTR 0% HSA (converted)); 200 pM in data set [3] (hCTR 0.1% HSA, 0.1% HSA); 7940 pM in data set [3] (hCTR 4% HSA, 4% HSA, read-out: pEC50 hCTR 4% HSA (converted)).
